Results from ChEMBL document CHEMBL6103575, “Design, synthesis and evaluation of (E)-1-(4-(2-(1H-pyrazol-5-yl)vinyl)phenyl) derivatives as next generation selective RET inhibitors overcoming RET solvent front mutations (G810C/R)” (Eur J Med Chem, 2025).

Key:
[1] = Induction of apoptosis in mouse BaF3 cells harboring CCDC6-RET G810R mutant assessed as necrotic cells at 100 nM incubated for 48 hrs by Annexin V-PE staining based flow cytometry analysis (Rvb =0.30%); type: functional
BaF3 [2] = assay: Antiproliferative activity against mouse BaF3 cells harbouring CCDC6-RET assessed as inhibition of cell proliferation incubated for 72 hrs by CCK-8 assay; type: functional, cell-based; settings: BaF3, 72 h
[3] = Induction of apoptosis in mouse BaF3 cells harboring CCDC6-RET assessed as viable cells at 300 nM incubated for 48 hrs by Annexin V-PE staining based flow cytometry analysis (Rvb =91.16%); type: functional; settings: read-out: Activity
[4] = Induction of cell cycle arrest in mouse BaF3 cells harboring CCDC6-RET assessed as accumulation of cells at G0/G1 phase at 30 nM incubated for 24 hrs by propidium iodide staining based analysis (reference value: 52.51%); type: functional
[5] = Induction of apoptosis in mouse BaF3 cells harboring CCDC6-RET assessed as viable cells at 100 nM incubated for 48 hrs by Annexin V-PE staining based flow cytometry analysis (Rvb =91.16%); type: functional; settings: read-out: Activity
[6] = Induction of cell cycle arrest in mouse BaF3 cells harboring CCDC6-RET G810R mutant assessed as accumulation of cells at G0/G1 phase at 100 nM incubated for 24 hrs by propidium iodide staining based analysis (reference value: 52.63%); type: functional
[7] = Induction of apoptosis in mouse BaF3 cells harboring CCDC6-RET assessed as late apoptotic cells at 30 nM incubated for 48 hrs by Annexin V-PE staining based flow cytometry analysis (Rvb =2.44%); type: functional
[8] = Induction of apoptosis in mouse BaF3 cells harboring CCDC6-RET G810C mutant assessed as necrotic cells at 300 nM incubated for 48 hrs by Annexin V-PE staining based flow cytometry analysis (Rvb =0.48%); type: functional
[9] = Induction of cell cycle arrest in mouse BaF3 cells harboring CCDC6-RET assessed as accumulation of cells at S phase at 300 nM incubated for 24 hrs by propidium iodide staining based analysis (reference value: 13.27%); type: functional
[10] = target: Proto-oncogene tyrosine-protein kinase receptor Ret (Homo sapiens, UniProt P07949); assay: Inhibition of RET (unknown origin) at 1 uM relative to control
BaF3 [11] = assay: Antiproliferative activity against mouse BaF3 cells harbouring CCDC6-RET G810C mutant assessed as inhibition of cell proliferation incubated for 72 hrs by CCK-8 assay; type: functional, cell-based; settings: BaF3, 72 h
[12] = target: BDNF/NT-3 growth factors receptor (Homo sapiens, UniProt Q16620); assay: Inhibition of TRKB (unknown origin)
[13] = Induction of apoptosis in mouse BaF3 cells harboring CCDC6-RET G810C mutant assessed as early apoptotic cells at 300 nM incubated for 48 hrs by Annexin V-PE staining based flow cytometry analysis (Rvb =8.74%); type: functional
[14] = Induction of cell cycle arrest in mouse BaF3 cells harboring CCDC6-RET G810R mutant assessed as accumulation of cells at G2/M phase at 10 nM incubated for 24 hrs by propidium iodide staining based analysis (reference value: 33.61%); type: functional
[15] = Induction of apoptosis in mouse BaF3 cells harboring CCDC6-RET G810R mutant assessed as viable cells at 300 nM incubated for 48 hrs by Annexin V-PE staining based flow cytometry analysis (Rvb =86.40%); type: functional; settings: read-out: Activity
Ephrin type-A receptor 2 = Ephrin type-A receptor 2 (Homo sapiens, UniProt P29317); assay: Inhibition of EPHA2 (unknown origin) at 1 uM relative to control
Ephrin type-B receptor 4 = target: T1, Ephrin type-B receptor 4 (Homo sapiens, UniProt P54760); assay: Inhibition of EPHB4 (unknown origin)
T1 sequence (P54760 whole entry): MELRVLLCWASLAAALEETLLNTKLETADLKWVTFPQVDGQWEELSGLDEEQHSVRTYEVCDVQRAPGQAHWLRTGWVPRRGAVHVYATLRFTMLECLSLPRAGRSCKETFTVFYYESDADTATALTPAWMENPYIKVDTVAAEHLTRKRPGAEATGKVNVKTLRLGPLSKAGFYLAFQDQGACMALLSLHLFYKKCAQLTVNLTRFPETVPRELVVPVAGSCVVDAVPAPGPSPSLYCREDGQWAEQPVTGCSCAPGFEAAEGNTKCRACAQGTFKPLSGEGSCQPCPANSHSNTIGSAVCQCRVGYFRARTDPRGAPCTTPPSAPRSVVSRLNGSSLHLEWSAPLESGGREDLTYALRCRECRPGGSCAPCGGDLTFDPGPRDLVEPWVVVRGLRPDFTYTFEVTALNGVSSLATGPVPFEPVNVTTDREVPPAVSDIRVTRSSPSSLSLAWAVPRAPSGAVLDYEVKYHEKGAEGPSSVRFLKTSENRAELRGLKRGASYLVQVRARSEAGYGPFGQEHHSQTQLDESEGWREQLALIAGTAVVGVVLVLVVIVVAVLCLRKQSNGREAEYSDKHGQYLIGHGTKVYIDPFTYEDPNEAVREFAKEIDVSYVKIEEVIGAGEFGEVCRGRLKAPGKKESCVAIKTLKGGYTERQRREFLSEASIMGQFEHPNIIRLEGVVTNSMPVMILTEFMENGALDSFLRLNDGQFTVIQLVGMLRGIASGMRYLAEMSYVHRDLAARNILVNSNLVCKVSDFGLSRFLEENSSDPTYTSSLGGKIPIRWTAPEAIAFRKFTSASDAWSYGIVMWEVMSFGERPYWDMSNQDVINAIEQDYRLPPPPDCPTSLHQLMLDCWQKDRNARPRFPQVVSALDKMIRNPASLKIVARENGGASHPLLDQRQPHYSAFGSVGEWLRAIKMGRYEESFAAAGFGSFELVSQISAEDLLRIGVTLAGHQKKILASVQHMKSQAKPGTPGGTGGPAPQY

[16] = target: T2, Ephrin type-B receptor 4 (Homo sapiens) (UniProt P54760); assay: Inhibition of EPHB4 (unknown origin) at 1 uM relative to control
T2 sequence (whole entry): T1 sequence (P54760 whole entry)

[17] = Induction of apoptosis in mouse BaF3 cells harboring CCDC6-RET assessed as necrotic cells at 10 nM incubated for 48 hrs by Annexin V-PE staining based flow cytometry analysis (Rvb =0.19%); type: functional
[18] = Induction of apoptosis in mouse BaF3 cells harboring CCDC6-RET G810R mutant assessed as early apoptotic cells at 30 nM incubated for 48 hrs by Annexin V-PE staining based flow cytometry analysis (Rvb =10 %); type: functional
BaF3 [19] = assay: Antiproliferative activity against mouse BaF3 cells harbouring CCDC6-RET G810R mutant assessed as inhibition of cell proliferation incubated for 72 hrs by CCK-8 assay; type: functional, cell-based; settings: BaF3, 72 h

Chain of Proto-oncogene tyrosine-protein kinase receptor Ret (P07949 whole entry): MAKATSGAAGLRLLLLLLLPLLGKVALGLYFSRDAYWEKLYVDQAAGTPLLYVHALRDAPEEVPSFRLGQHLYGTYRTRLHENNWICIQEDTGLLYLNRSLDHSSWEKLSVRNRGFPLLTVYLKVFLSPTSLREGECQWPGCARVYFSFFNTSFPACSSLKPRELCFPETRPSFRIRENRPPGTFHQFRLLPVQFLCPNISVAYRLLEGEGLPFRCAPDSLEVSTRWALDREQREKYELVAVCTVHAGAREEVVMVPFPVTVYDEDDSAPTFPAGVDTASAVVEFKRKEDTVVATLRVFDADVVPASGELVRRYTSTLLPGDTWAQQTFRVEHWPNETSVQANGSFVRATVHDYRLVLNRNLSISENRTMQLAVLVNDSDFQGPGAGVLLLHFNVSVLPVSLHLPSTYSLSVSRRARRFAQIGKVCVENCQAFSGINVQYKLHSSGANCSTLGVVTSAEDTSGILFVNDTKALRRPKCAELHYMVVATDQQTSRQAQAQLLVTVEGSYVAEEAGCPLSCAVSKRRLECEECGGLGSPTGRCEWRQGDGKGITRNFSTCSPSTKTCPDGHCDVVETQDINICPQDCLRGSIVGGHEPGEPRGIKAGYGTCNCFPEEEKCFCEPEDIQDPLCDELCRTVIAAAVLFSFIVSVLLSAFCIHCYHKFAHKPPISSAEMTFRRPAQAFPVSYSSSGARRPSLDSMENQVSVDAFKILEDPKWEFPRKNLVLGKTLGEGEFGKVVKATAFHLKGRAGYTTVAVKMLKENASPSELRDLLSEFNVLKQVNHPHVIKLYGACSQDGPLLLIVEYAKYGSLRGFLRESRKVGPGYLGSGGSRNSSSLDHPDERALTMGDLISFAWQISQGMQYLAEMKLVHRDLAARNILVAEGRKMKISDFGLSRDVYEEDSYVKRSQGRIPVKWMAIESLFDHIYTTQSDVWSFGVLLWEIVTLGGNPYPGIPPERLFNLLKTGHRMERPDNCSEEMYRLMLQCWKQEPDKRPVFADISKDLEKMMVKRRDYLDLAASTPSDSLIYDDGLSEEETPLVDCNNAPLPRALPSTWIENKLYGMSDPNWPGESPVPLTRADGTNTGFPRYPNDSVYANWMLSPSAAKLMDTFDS
Chain of BDNF/NT-3 growth factors receptor (Q16620 whole entry): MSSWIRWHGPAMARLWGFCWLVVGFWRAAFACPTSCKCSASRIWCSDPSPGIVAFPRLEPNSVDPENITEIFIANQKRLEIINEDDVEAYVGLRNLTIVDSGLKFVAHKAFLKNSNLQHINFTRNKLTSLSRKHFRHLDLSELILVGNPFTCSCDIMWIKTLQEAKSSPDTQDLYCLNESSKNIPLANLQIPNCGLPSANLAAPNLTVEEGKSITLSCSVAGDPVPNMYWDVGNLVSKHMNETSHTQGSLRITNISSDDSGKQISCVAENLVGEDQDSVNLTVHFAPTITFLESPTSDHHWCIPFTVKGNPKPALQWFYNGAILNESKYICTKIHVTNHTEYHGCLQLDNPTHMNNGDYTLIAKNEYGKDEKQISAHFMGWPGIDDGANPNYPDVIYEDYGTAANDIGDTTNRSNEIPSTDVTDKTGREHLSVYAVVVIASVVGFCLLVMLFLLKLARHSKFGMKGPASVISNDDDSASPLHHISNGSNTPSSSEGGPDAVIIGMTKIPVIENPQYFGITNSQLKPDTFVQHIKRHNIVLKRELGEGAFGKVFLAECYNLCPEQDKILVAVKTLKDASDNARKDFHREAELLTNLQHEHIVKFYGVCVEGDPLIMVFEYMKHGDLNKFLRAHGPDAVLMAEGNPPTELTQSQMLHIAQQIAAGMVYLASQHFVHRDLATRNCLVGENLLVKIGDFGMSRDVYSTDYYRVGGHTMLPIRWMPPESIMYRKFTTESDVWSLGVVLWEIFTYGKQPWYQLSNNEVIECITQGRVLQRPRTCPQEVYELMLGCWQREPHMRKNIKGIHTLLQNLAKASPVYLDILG
Chain of Ephrin type-A receptor 2 (P29317 whole entry): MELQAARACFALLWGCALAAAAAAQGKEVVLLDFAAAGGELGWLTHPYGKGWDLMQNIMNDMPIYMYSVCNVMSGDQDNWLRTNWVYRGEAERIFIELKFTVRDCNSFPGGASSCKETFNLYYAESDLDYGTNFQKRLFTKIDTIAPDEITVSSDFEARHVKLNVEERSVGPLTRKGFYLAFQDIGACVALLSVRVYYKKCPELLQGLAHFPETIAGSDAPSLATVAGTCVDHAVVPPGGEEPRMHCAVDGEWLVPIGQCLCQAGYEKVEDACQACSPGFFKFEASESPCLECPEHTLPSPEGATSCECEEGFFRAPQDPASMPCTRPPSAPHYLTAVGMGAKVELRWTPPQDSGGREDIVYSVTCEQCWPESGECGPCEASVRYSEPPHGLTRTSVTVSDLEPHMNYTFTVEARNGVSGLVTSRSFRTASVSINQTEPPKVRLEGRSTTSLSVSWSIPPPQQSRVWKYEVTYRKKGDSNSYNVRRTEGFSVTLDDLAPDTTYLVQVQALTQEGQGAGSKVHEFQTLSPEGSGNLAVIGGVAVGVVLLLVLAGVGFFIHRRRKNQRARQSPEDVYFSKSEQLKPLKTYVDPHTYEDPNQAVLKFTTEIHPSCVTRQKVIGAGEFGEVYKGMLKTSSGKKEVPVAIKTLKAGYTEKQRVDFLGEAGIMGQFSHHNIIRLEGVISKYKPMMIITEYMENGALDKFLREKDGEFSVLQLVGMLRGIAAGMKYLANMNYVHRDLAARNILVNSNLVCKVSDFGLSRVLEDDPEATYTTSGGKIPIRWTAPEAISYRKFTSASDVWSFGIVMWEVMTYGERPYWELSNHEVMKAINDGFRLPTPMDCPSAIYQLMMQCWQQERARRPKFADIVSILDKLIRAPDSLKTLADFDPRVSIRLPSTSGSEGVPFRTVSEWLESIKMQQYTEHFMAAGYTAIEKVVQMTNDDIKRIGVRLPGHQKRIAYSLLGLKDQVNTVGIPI

## COc1cncc(-c2cn[nH]c2/C=C/c2ccc(NC(=O)Nc3cc(C(C)(C)C(F)(F)F)on3)c(Cl)c2)c1
[1]
  Activity: 0.79%
BaF3 [2]
  IC50: 13 nM
[3]
  viability at 0.3 µM: 13.9%
[4]
  Activity: 56.2%
[5]
  viability at 0.1 µM: 24%
[6]
  Activity: 57.96%
[7]
  Activity: 0.8%
[8]
  Activity: 0.03%
[9]
  Activity: 3.34%
[10]
  inhibition: 98.3%
BaF3 [11]
  IC50: 25.7 nM
[12]
  IC50: 86.7 nM
[13]
  Activity: 91.44%
[14]
  Activity: 32.33%
[15]
  viability at 0.3 µM: 22.5%
Ephrin type-A receptor 2
  inhibition: 100%
Ephrin type-B receptor 4
  IC50: 36.4 nM
[16]
  inhibition: 92.9%
[17]
  Activity: 0.14%
[18]
  Activity: 9.96%
BaF3 [19]
  IC50: 28.4 nM
